One compound from patent US12297238B2, “FimH mutants, compositions therewith and use thereof” (Janssen Pharmaceuticals, Inc., priority 2021, dated 2025) can be followed below.

Conditions in all cases: SPR, HBS-N pH 7.4, single cycle kinetics
Background: SPR reads the build-up and loss of mass on a sensor chip optically.

For test [1], the target named is E. coli FimH lectin domain (FimHLD 23-10, SEQ ID NO: 1) variant R60P-Q133K (Escherichia coli, UniProt P08191, Q154K/R81P/V48A). As to the method:
(§1) To gain a detailed insight into the binding affinity and kinetics of the interaction of FimH lectin domain variants with the n-Heptyl-α-D-mannopyranoside ligand, surface plasmon resonance (SPR) measurements were performed. In brief, the FimH variants were titrated into the Mannoside ligand 5 surface (Rabbani S et al, J Biol. Chem., 2018, 293(5):1835-1849) with the top concentrations of either 3 or 10 μM in HBS-N(0.01 M HEPES, pH 7.4, 0.15 M NaCl, 3 mM EDTA, 0.05% surfactant P20). The proteins were injected from 0.12 to 10 μM or 0.036 to 3.0 μM using a single cycle kinetics injection.
(§2) These mutants were taken as positive controls. […] Additionally, wild-type (WT) FimH lectin domain was taken along as a negative control.
(§3) The variants affinity for binding to mannose was assessed using SPR.

The target of test [2] is E. coli FimH lectin domain (FimHLD 23-10, SEQ ID NO: 1) variant F144V/F71Y (Escherichia coli, UniProt P08191, F165V/F92Y/V48A). As to the method: as §1, §2, §3
Test [3] has as its target E. coli FimH lectin domain (FimHLD 23-10, SEQ ID NO: 1) variant R60P (Escherichia coli, UniProt P08191, R81P/V48A). As for the experimental part: as §1, §2, §3
Test [4] concerns the target E. coli FimH lectin domain (FimHLD 23-10, SEQ ID NO: 1) variant F71Y (Escherichia coli, UniProt P08191, F92Y/V48A). As for the experimental part: as §1, §2, §3
For test [5], the target named is E. coli FimH lectin domain (FimHLD 23-10, SEQ ID NO: 1) variant F144V (Escherichia coli, UniProt P08191, F165V/V48A). As for the experimental part:
as §1, §2, §3

Test [6] has as its target E. coli FimH lectin domain (FimHLD 23-10, SEQ ID NO: 1) variant Q133K (Escherichia coli, UniProt P08191, Q154K/V48A). As for the experimental part:
as §1, §2, §3

Sequence of E. coli FimH lectin domain (FimHLD 23-10, SEQ ID NO: 1) variant F144V/F71Y (P08191 22-180 V48A/F92Y/F165V): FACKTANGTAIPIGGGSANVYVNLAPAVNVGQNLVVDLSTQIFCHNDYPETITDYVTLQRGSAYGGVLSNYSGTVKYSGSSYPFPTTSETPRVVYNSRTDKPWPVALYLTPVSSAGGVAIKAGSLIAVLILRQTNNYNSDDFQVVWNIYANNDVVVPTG
Sequence of E. coli FimH lectin domain (FimHLD 23-10, SEQ ID NO: 1) variant R60P-Q133K (P08191 22-180 V48A/R81P/Q154K): as the sequence (P08191 22-180 V48A/F92Y/F165V) above, with R60P, Y71F, Q133K, V144F counted along it
Sequence of E. coli FimH lectin domain (FimHLD 23-10, SEQ ID NO: 1) variant F71Y (P08191 22-180 V48A/F92Y): as the sequence (P08191 22-180 V48A/F92Y/F165V) above, with V144F counted along it
Sequence of E. coli FimH lectin domain (FimHLD 23-10, SEQ ID NO: 1) variant Q133K (P08191 22-180 V48A/Q154K): as the sequence (P08191 22-180 V48A/F92Y/F165V) above, with Y71F, Q133K, V144F counted along it
Sequence of E. coli FimH lectin domain (FimHLD 23-10, SEQ ID NO: 1) variant R60P (P08191 22-180 V48A/R81P): as the sequence (P08191 22-180 V48A/F92Y/F165V) above, with R60P, Y71F, V144F counted along it
Sequence of E. coli FimH lectin domain (FimHLD 23-10, SEQ ID NO: 1) variant F144V (P08191 22-180 V48A/F165V): as the sequence (P08191 22-180 V48A/F92Y/F165V) above, with Y71F counted along it

Regarding `CCCCCCCO[C@H]1O[C@H](CO)[C@@H](O)[C@H](O)[C@@H]1O` [n-Heptyl-α-D-mannopyranoside], the “Affinity (KD)” value in test [1] is “did not bind to mannoside at all”; in test [2] it was “completely abolished”; in test [3], “low affinity”; in test [4] it was “some affinity”; in test [5], “completely abolished”; in test [6], “did not bind to mannoside at all”.
